Measurements reported in PubChem BioAssay AID1963423 (Molecular Pharmacology Branch, DTP, NCI, 2024).

Test system: 439559-082-T-J2-PDC complex spheroid growth
Assay: Anticancer human tumor 439559-082-T-J2-PDC patient-derived colon adenocarcinoma cell line growth inhibition [Asc]
Details: for IC50: curve of first compound; for viability, T/C: stronger effect = lower value
Procedure, shortened: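 Complex solid-tumor spheroids incorporating human endothelial and mesenchymal stem cells received single agents or combinations over half-log dilution ranges anchored to clinical Cmax.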

[1] = second compound 0.03 µM, first compound 0.0316 µM
[2] = second compound 0.03 µM, first compound 0.1 µM
[3] = second compound 0.03 µM, first compound 0.316 µM
[4] = second compound 0.03 µM, first compound 1 µM
[5] = second compound 0.03 µM, first compound 3.16 µM
[6] = second compound 0.03 µM, first compound 10 µM
[7] = second compound 0.0949 µM, first compound 0.0316 µM
[8] = second compound 0.0949 µM, first compound 0.1 µM
[9] = second compound 0.0949 µM, first compound 0.316 µM
[10] = second compound 0.0949 µM, first compound 1 µM
[11] = second compound 0.0949 µM, first compound 3.16 µM
[12] = second compound 0.0949 µM, first compound 10 µM
[13] = second compound 0.3 µM, first compound 0.0316 µM
[14] = second compound 0.3 µM, first compound 0.1 µM
[15] = second compound 0.3 µM, first compound 0.316 µM
[16] = second compound 0.3 µM, first compound 1 µM
[17] = second compound 0.3 µM, first compound 3.16 µM
[18] = second compound 0.3 µM, first compound 10 µM
[19] = second compound 0.949 µM, first compound 0.0316 µM
[20] = second compound 0.949 µM, first compound 0.1 µM
[21] = second compound 0.949 µM, first compound 0.316 µM
[22] = second compound 0.949 µM, first compound 1 µM
[23] = second compound 0.949 µM, first compound 3.16 µM
[24] = second compound 0.949 µM, first compound 10 µM
[25] = second compound 3 µM, first compound 0.0316 µM
[26] = second compound 3 µM, first compound 0.1 µM
[27] = second compound 3 µM, first compound 0.316 µM
[28] = second compound 3 µM, first compound 1 µM
[29] = second compound 3 µM, first compound 3.16 µM
[30] = second compound 3 µM, first compound 10 µM
[31] = second compound 0.03 µM, first compound 0.00316 µM
[32] = second compound 0.03 µM, first compound 0.01 µM
[33] = second compound 0.0949 µM, first compound 0.00316 µM
[34] = second compound 0.0949 µM, first compound 0.01 µM
[35] = second compound 0.3 µM, first compound 0.00316 µM
[36] = second compound 0.3 µM, first compound 0.01 µM
[37] = second compound 0.949 µM, first compound 0.00316 µM
[38] = second compound 0.949 µM, first compound 0.01 µM
[39] = second compound 3 µM, first compound 0.00316 µM
[40] = second compound 3 µM, first compound 0.01 µM
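Further: spheroids exposed to agents for 7 days starting day 3 after seeding.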
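Wherever viability, T/C is given: percent of DMSO vehicle control viability with 100% = vehicle.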

SMILES	IC50 (second compound 0.03 µM) [nM]	IC50 (second compound 0.0949 µM) [nM]	IC50 (second compound 0.3 µM) [nM]	IC50 (second compound 0.949 µM) [nM]	IC50 (second compound 3 µM) [nM]	viability, T/C [1] [%]	viability, T/C [2] [%]	viability, T/C [3] [%]	viability, T/C [4] [%]	viability, T/C [7] [%]	viability, T/C [8] [%]	viability, T/C [9] [%]	viability, T/C [10] [%]	viability, T/C [13] [%]	viability, T/C [14] [%]	viability, T/C [15] [%]	viability, T/C [16] [%]	viability, T/C [19] [%]	viability, T/C [20] [%]	viability, T/C [21] [%]	other results
C#Cc1c(F)ccc2cc(O)cc(-c3ncc4c(N5CC6CCC(C5)N6)nc(OCC56CCCN5CC(F)C6)nc4c3F)c12 (stereo not given) + CCN1C(C(=O)NC23CCC(C(=O)O)(CC2)CC3)C(c2cccc(Cl)c2F)C2(C(=O)Nc3cc(Cl)ccc32)C12CCCCC2	1160	2200	1630	2190	593	88	81.7	64	50	88.8	84.8	74.5	55.2	88.5	83.5	73.4	51.2	103	80.8	72.8	viability, T/C [5]: 48.4%; viability, T/C [6]: 40%; viability, T/C [11]: 49.7%; viability, T/C [12]: 36.2%; viability, T/C [17]: 49.3%; viability, T/C [18]: 39.3%; viability, T/C [22]: 55.7%; viability, T/C [23]: 48.2%; viability, T/C [24]: 36.9%; viability, T/C [25]: 73.6%; viability, T/C [26]: 74.3%; viability, T/C [27]: 56.6%; viability, T/C [28]: 45.2%; viability, T/C [29]: 44.9%; viability, T/C [30]: 37.8%
C=C(F)C(=O)N1CCN(c2nc(OCC3CCCN3C)nc3c2CCN(c2cccc4cccc(Cl)c24)C3)CC1CC#N (stereo not given) + CCN1C(C(=O)NC23CCC(C(=O)O)(CC2)CC3)C(c2cccc(Cl)c2F)C2(C(=O)Nc3cc(Cl)ccc32)C12CCCCC2	6630	5800	6300	6350	5120	102	96.2	116	93	109	112	107	96.7	92	113	103	90.5	104	103	105	viability, T/C [5]: 92.1%; viability, T/C [6]: 27%; viability, T/C [11]: 82.8%; viability, T/C [12]: 22.3%; viability, T/C [17]: 85%; viability, T/C [18]: 27.5%; viability, T/C [22]: 98.2%; viability, T/C [23]: 85.7%; viability, T/C [24]: 26.7%; viability, T/C [25]: 88.3%; viability, T/C [26]: 102%; viability, T/C [27]: 96.3%; viability, T/C [28]: 84.5%; viability, T/C [29]: 80.2%; viability, T/C [30]: 10.2%
C=CC(=O)N1CCN(c2nc(=O)n(-c3c(C)ccnc3C(C)C)c3nc(-c4c(O)cccc4F)c(F)cc23)C(C)C1 (stereo not given) + CCN1C(C(=O)NC23CCC(C(=O)O)(CC2)CC3)C(c2cccc(Cl)c2F)C2(C(=O)Nc3cc(Cl)ccc32)C12CCCCC2	> 10000	> 10000	> 10000	> 10000	> 10000	108	106	108	96.5	103	106	110	93.2	103	103	110	89.7	102	110	117	viability, T/C [5]: 107%; viability, T/C [6]: 98.6%; viability, T/C [11]: 101%; viability, T/C [12]: 103%; viability, T/C [17]: 100%; viability, T/C [18]: 109%; viability, T/C [22]: 93.8%; viability, T/C [23]: 99%; viability, T/C [24]: 104%; viability, T/C [25]: 94.7%; viability, T/C [26]: 94.6%; viability, T/C [27]: 107%; viability, T/C [28]: 85.7%; viability, T/C [29]: 90%; viability, T/C [30]: 91.8%
CNC(C)C(=O)NC1CN(S(=O)(=O)c2cccc(S(=O)(=O)N3CCC4CCC(C(=O)NC(c5ccccc5)c5ccccc5)N4C(=O)C(NC(=O)C(C)NC)C3)c2)CCC2CCC(C(=O)NC(c3ccccc3)c3ccccc3)N2C1=O (stereo not given) + CCN1C(C(=O)NC23CCC(C(=O)O)(CC2)CC3)C(c2cccc(Cl)c2F)C2(C(=O)Nc3cc(Cl)ccc32)C12CCCCC2	> 1000	> 1000	> 1000	> 1000	> 1000	109	95.5	102	88	106	96.8	93	84.6	113	94.8	84.7	82.5	126	101	92.8	viability, T/C [31]: 104%; viability, T/C [32]: 110%; viability, T/C [33]: 109%; viability, T/C [34]: 110%; viability, T/C [35]: 109%; viability, T/C [36]: 105%; viability, T/C [37]: 103%; viability, T/C [38]: 113%; viability, T/C [22]: 91.5%; viability, T/C [39]: 99.1%; viability, T/C [40]: 102%; viability, T/C [25]: 109%; viability, T/C [26]: 93.1%; viability, T/C [27]: 75%; viability, T/C [28]: 77.7%
COc1c(OCCCN2CCOCC2)ccc2c3n(c(=NC(=O)c4cnc(N)nc4)nc12)CCN3 + CCN1C(C(=O)NC23CCC(C(=O)O)(CC2)CC3)C(c2cccc(Cl)c2F)C2(C(=O)Nc3cc(Cl)ccc32)C12CCCCC2	> 1000	> 1000	> 1000	> 1000	> 1000	94.1	71.7	63.3	57.4	90.7	69	67.3	60.8	89.4	68.7	59.7	60.9	96.6	69.5	60.6	viability, T/C [31]: 98.5%; viability, T/C [32]: 98.3%; viability, T/C [33]: 96.4%; viability, T/C [34]: 96.9%; viability, T/C [35]: 88.9%; viability, T/C [36]: 99.9%; viability, T/C [37]: 95.8%; viability, T/C [38]: 98.3%; viability, T/C [22]: 63.1%; viability, T/C [39]: 80.1%; viability, T/C [40]: 83.8%; viability, T/C [25]: 93.2%; viability, T/C [26]: 63%; viability, T/C [27]: 59%; viability, T/C [28]: 55.2%
